# Reference: US4115482A, “Stereospecific cis- and trans-vinylic phosphorus esters” (priority 1977, dated 1978)
# Columns and labels:
# bovine cholinesterase = biological target: T1, bovine cholinesterase (Bos taurus, UniProt P23795); assay: Cholesterinase placeholder; assay type: biochemical; settings: for Cholinesterase IC50 (50% inhibiting concentration), after oxidation: after oxidation with peracetic acid in benzene (75°, 20 minutes) to the corresponding monothiophosphate, bovine cholinesterase, 35° C., 30 minutes
# T1 construct: Ellman test with acetylthiocholine
# T1 sequence (P23795 31-613): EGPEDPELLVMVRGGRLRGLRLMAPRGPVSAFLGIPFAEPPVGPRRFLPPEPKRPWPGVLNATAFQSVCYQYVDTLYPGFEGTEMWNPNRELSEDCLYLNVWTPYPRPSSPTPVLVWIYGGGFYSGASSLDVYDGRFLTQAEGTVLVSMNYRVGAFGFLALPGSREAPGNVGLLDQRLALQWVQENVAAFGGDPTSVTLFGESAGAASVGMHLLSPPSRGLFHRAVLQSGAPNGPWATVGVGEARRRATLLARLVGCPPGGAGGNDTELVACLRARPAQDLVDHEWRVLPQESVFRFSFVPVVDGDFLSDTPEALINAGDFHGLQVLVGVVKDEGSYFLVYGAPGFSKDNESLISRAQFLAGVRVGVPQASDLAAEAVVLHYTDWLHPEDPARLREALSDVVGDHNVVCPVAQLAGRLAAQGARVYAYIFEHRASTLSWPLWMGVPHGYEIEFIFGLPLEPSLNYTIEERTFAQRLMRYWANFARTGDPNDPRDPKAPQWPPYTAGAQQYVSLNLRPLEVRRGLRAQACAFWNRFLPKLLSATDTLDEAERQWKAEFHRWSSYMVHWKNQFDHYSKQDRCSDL
# Protocol: The insecticidal effectiveness of organophosphorus compounds is generally attributed to their inhibition of the cholinesterase enzyme. This inhibiting potency is usually expressed as the concentration of the compound which will reduce the activity of the enzyme by 50%, i.e. […]. The […] values of several cis- and trans-S-propenyl dialkyl dithiophosphates were determined to estimate the relative insecticidal potential of the geometric isomer pairs.
# Test Method: To a solution of 0.2 unit of bovine cholinesterase in 2.97 ml of a buffer solution containing 11.15 g of disodium hydrogen phosphate dodecahydrate and 1.81 g of potassium dihydrogen phosphate per liter of water, 0.03 ml of a solution of the dithiophosphate adduct in benzene was added. This mixture was then incubated in a water bath at 35° C. for 30 minutes. One ml of a solution containing 100 mg of 5,5'-dithiobis-(2-nitrobenzoic acid), 100 mg of acetylthiocholine iodide, and 75 ml of the above buffer solution in sufficient water to make 200 ml was then added and the mixture again incubated in a water bath at 35° C. for 30 minutes more. The amount of inhibition of bovine cholinesterase was then determined from the absorbance of this solution at 420 millimicrons. By using a series of solutions of the test chemical at various concentrations in acetone, the concentration needed for 50% inhibition was determined.
# The oxidation was carried out with peracetic acid in benzene solution at 75° for 20 minutes. After the removal of the excess peracetic acid, the benzene solution was used for enzyme inhibition as described above.
# The median inhibiting concentrations for the cis- and trans-S-propenyl dimethyl and diethyl dithiophosphates are listed in Table II. Data on S-vinyl dimethyl dithiophosphate are also tabulated for comparison.
# two spotted spider mite = assay: Systemic miticidal action on potted bean plants (soil treatment); assay type: in vivo; settings: 20 ml of aqueous emulsion containing 0.05% of the chemical applied to soil, 5 days
# Protocol: For this purpose, a systemic pesticide test on mites was chosen as an example.
# Test Method: Potted bean plants were infested with the two spotted spider mite. The soil in the pots was then treated by applying 20 ml of aqueous emulsion containing 0.05% of the chemical. The emulsions were prepared by dissolving the cis- and the trans-compound in acetone and dispersing it in distilled water with Triton X-100. (The emulsifier is an alkylaryl polyether alcohol derived from nonylphenol and ethylene oxide). After the application of the test emulsion, the plants were held for 5 days and then the degree of mite control was rated.
SMILES,"Cholinesterase IC50 (50% inhibiting concentration), after oxidation (bovine cholinesterase)",degree of mite control (systemic) (two spotted spider mite),"cholinesterase inhibition, comparison in words (bovine cholinesterase; relative inhibiting potency of isomers, oxidized forms and S-vinyl analog)"
"C=CSP(=S)(OC)OC [Reference, S-vinyl dimethyl dithiophosphate, reference compound]",3.1 × 10^ -6 mole/liter,–,–
"C/C=C\SP(=S)(OC)OC [Example 3, cis-Propenyl O,O'-Dimethyl Dithiophosphate]",4.1e-05 mol/L,there were live mites and their nymphs,–
"C/C=C/SP(=S)(OC)OC [Example 4, trans-S-Propenyl O,O'-Dimethyl Dithiophosphate]",2.8e-08 mol/L,completely free from mites and nymphs,the substitution of the trans-vinylic hydrogen by a methyl group increases the insecticidal potential
"C/C=C\SP(=S)(OCC)OCC [Example 2, cis-Propenyl O,O'-Diethyl Dithiophosphate]",0.00018 mol/L,–,–
"C/C=C/SP(=S)(OCC)OCC [Example 1, trans-S-Propenyl O,O'-Diethyl Dithiophosphate]",1.6e-07 mol/L,–,–
CC=CSP(=S)(OCC)OCC,4.4e-06 mol/L,–,–
